In patent publication US9763996B2, “Polymyxin derivative and uses thereof” (Northern Antibiotics Ltd., priority 2015, dated 2017):
Read-outs that look alike come from different tables or passages of the source. Where a SMILES comes first, the peptide text is derived from it. Bridges are numbered along the chain shown (N, C = ends). [ ]: non-standard residue; d: D form. The star is where a group is joined. Octanoyl = CCCCCCCC(=O)*; Dab = NCC[C@H](N)C(=O)O; Abu = CC[C@H](N)C(=O)O

What was measured:
Escherichia coli C175-94 = experiment: Murine urinary tract infection efficacy; format: in vivo; settings: for dose-response in the CFUs in the bladder and in the kidneys: 0.25-2 mg/kg/dose s.c. twice a day
Description: The study used 64 outbred, OF-1 female mice (Charles River, France) weighing 28-32 grams and Escherichia coli C175-94 (serotype O8:K48:H4), a clinical isolate elaborating type 1 fimbriae. The peptides were NAB815 (Lot 1054308) and polymyxin B (Sigma-Aldrich, batch BCBF8382V). The study was performed by Statens Serum Institut, Copenhagen, Denmark.
Three days before the start of the study and during the study, the mice had free access to 5% glucose in drinking water.
On day 0, the urine was removed from the bladder by gently pressing the abdomen. Thereafter, the mouse was anaesthetized with approximately 0.15 ml of Zoletil mix s.c. A syringe with polyethylene catheter (Becton Dickison) containing the bacterial suspension was inserted via the urethra into the bladder and 50 μl of the bacterial inoculum was slowly injected into the bladder. Thereafter, the mouse was left in the cage. Mice were kept in a warming cabinet and were under surveillance until fully awake.
After measuring the colony forming units (CFUs), the inoculum was determined to contain 9.38 log 10 CFU/ml, corresponding to 8.08 log 10 CFU/mouse.
On day 1 and day 2 postinfection, the mice were treated subcutaneously with solutions (0.2 ml) containing NAB815, polymyxin B or vehicle (0.9% NaCl) twice a day. The treatment groups (six mice in each) were the following: vehicle control; NAB815, 0.25 mg/kg/dose; NAB815, 0.5 mg/kg/dose; NAB815, 1 mg/kg/dose; NAB815, 2 mg/kg/dose; polymyxin B, 0.25 mg/kg/dose; polymyxin B, 0.5 mg/kg/dose; polymyxin B, 1 mg/kg/dose; and polymyxin B, 2 mg/kg/dose. In addition, one group served as a pretreatment control to help to assess as how the infection has proceeded before the start of the treatment on day 1 postinfection.
On days 1, 2 and 3 postinfection urine was sampled for colony counts. On day 1 postinfection (pretreatment control group) and on day 3 postinfection (all the other groups) after the urine sample was taken, mice were sacrificed by cervical dislocation and bladder and kidneys were removed aseptically. The bladder and kidneys were stored at −80° C. and later homogenized in 0.5 and 1 ml saline, respectively.
CFUs in urine were determined immediately within 2-3 hours after sampling. Frozen organs were thawed and homogenized with steel beads on a tissue lyser. All samples, urine, kidney and bladder, were 10 fold diluted in saline and 20-μl spots were applied on blood agar plates in duplicates. In addition, undiluted samples of urine (2-100 μl depending on the amount of urine) were spread on a separate agar plate to determine the lowest possible detection level of the colony counts. All agar plates were incubated 18-22 h at 35° C. in ambient air.

E. coli JMI 109 = settings: alone; E. coli JMI 109 (polymyxin-nonsusceptible)
P. aeruginosa ATCC 27853 = experiment: MIC assay (CLSI broth microdilution; checkerboard with rifampin); settings: P. aeruginosa ATCC 27853
P. aeruginosa = experiment: Synergy studies with rifampin; format: cell-based, Pseudomonas aeruginosa; settings: against P. aeruginosa
Description: Synergy studies were performed by using polymyxin derivatives in combination with rifampin, a model compound for such antibacterial agents that the intact outer membrane of Gram-negative bacteria acts as a permeability barrier.

[1] = of all 24 mice treated at 0.25-2 mg/kg/dose
[2] = in combination with rifampin 0.25 μg/mL

Molecule | dose-response in the CFUs in the bladder and in the kidneys (Escherichia coli C175-94) | CFU levels in urine, day 3 vs pretreatment control day 1 (Escherichia coli C175-94; any dose group (0.25, 0.5, 1, 2 mg/kg/dose) s.c. twice a day) | number of mice with bacterial levels below the detection limit in the urine (Escherichia coli C175-94; [1]) [mice] | MIC (A. baumannii JMI 48125; alone) [µg/mL] | MIC (A. baumannii JMI 48125; [2]) [µg/mL] | MIC (E. coli JMI 109) [µg/mL] | MIC (P. aeruginosa ATCC 27853; alone) [µg/mL] | MIC (P. aeruginosa ATCC 27853; [2]) [µg/mL] | synergistic activity with rifampin (P. aeruginosa) | CFU levels in urine, day 3 vs pretreatment control day 1 (Escherichia coli C175-94; 0.25 mg/kg/dose s.c. twice a day, OF-1 female mice) | CFU levels in urine, day 3 vs pretreatment control day 1 (Escherichia coli C175-94; 0.5 mg/kg/dose s.c. twice a day, OF-1 female mice) | CFU levels in urine, day 3 vs pretreatment control day 1 (Escherichia coli C175-94; 1 mg/kg/dose s.c. twice a day, OF-1 female mice, ** p<0.01) | CFU levels in urine, day 3 vs pretreatment control day 1 (Escherichia coli C175-94; 2 mg/kg/dose s.c. twice a day, OF-1 female mice, * p<0.05) | number of mice with bacterial levels below the detection limit in the kidneys (Escherichia coli C175-94; [1]) [mice]
Polymyxin B | did not show any dose-response tendency | no significant differences | 1 | 2 | 1 | 4 to 8 | 2 | 1 |  |  |  |  |  | 
CCCCCCCC(=O)N[C@@H](CCN)C(=O)N[C@H](C(=O)N[C@@H](C(=O)N[C@H]1CCNC(=O)[C@H]([C@@H](C)O)NC(=O)[C@H](CCN)NC(=O)[C@H](CC)NC(=O)[C@H](CC(C)C)NC(=O)[C@@H](Cc2ccccc2)NC(=O)[C@H](CCN)NC1=O)[C@H](C)O)[C@@H](C)O [NAB815, octanoyl-αDab-Thr-DThr-[cyclo-α,γDab-αDab-DPhe-Leu-Abu-αDab-Thr]] (Octanoyl-[Dab]T[dT][Dab][Dab][dF]L[Abu][Dab]T; lactam 4-C) | showed a tendency of a dose-response |  | 8 |  |  |  |  |  | lacked any notable synergistic activity with rifampin | no significant differences | no significant differences | significant reduction of CFU levels in urine | significant reduction of CFU levels in urine | 20
